Source: US20170274174A1, “SYSTEM AND METHOD FOR ADMINISTERING, MONITORING AND CONTROLLING BIOMIMETIC SLEEP” (THE GENERAL HOSPITAL CORPORATION, priority 2014, published 2017)
Read-outs that look alike come from different tables or passages of the source.

## Cc1cccc([C@H](C)c2cnc[nH]2)c1C [dexmedetomidine]
high-dose: about 0.9 to about 1.1 mcg/kg loading, about 0.80 to about 0.9 mcg/kg/hr maintenance, FIGS. 4A-4B
  EEG spectral dynamics / sleep state induced: only slow-waves being induced
low-dose: about 0.9 to about 1.1 mcg/kg loading, about 0.60 to about 0.7 mcg/kg/hr maintenance, FIGS. 3A-3B
  EEG spectral dynamics / sleep state induced: spindles and slow-waves that can closely resemble stage N2 NREM sleep
